Article PMC7497641, “Neurotropic activity and safety of methylene-cycloalkylacetate (MCA) derivative 3-(3-allyl-2-methylenecyclohexyl) propanoic acid” (ACS Chemical Neuroscience, 2020)

Legend:
[1] = molecular target: T1, Rho Associated Coiled-Coil Containing Protein Kinase 1 (serine-threonine kinase) (ROCK1) (Homo sapiens, UniProt Q13464); assay: SAFETYscan KINOMEscan binding assay; conditions: Inhibitor
T1 construct: host or cells: E. coli BL21-derived host (T7 phage) or HEK-293

[2] = molecular target: T2, Monoamine oxidase type A (MAOA) (Homo sapiens, UniProt P21397); assay: SAFETYscan Enzymatic assay; format: biochemical; conditions: Inhibitor
T2 construct: purchased Sigma-Aldrich-Merck

[3] = molecular target: Cholecystokinin Receptor A (CCKAR) (Homo sapiens, UniProt P32238); assay: SAFETYscan GPCR Calcium Flux; format: cell-based; conditions: read-out: RC50 (the source's name)
Chain of Cholecystokinin Receptor A (CCKAR) (P32238 whole entry): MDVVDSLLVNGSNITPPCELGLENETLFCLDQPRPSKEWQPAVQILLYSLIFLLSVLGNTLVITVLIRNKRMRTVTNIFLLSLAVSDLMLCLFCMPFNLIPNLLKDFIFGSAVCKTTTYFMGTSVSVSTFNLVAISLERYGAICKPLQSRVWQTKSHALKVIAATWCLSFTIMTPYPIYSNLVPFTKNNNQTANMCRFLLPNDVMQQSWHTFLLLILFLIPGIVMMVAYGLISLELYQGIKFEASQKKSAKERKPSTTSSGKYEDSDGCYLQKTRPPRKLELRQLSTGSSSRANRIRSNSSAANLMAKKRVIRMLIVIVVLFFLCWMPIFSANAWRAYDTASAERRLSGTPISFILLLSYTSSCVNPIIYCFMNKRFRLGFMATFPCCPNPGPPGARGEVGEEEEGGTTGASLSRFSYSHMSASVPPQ

neurons = assay: Cytotoxicity to neurons; format: cell-based; conditions: 10 μM
Source text: “Off-target” activity refers to all other targets for which a molecule has affinity with the outcome of activation, blockade, or modulation, resulting in a functional effect. In many cases, the off-target activity of the molecule can be sub-clinical and not pose a concern. On the other hand, the off-target activity may result in side effects of the active agent that range from a minor nuisance to a severe adverse event, resulting with drug withdrawal.[33] Therefore, in vitro pharmacological profiling is increasingly being used earlier in the drug discovery process to identify undesirable off-target activity profiles that could hinder or halt the development of a candidate drug.[34] With this background, assessing the specificity of HU-MCA-13 early in its development using highly relevant and predictive functional assays, which allow more informed decisions about its safety, ultimately lead to the development of an effective neurotropic drug. […] Cell death was evaluated by morphological appearance of the cells and release of LDH into the medium, in the absence and presence of different concentrations of synthetic compounds as previously described.[52]

[4] = molecular target: T3, Dopamine Receptor D2 (DRD2S) (Homo sapiens, UniProt P14416); assay: SAFETYscan GPCR cAMP; format: cell-based
T3 construct: host or cells: cAMP Hunter cell lines

[5] = molecular target: Histamine Receptor H1 (HRH1) (Homo sapiens, UniProt P35367); assay: SAFETYscan GPCR Calcium Flux; format: cell-based; conditions: read-out: RC50 (the source's name)
[6] = molecular target: T4, Vascular endothelial growth factor receptor 2 (KDR tyrosine kinase) (VEGFR2) (Homo sapiens, UniProt P35968); assay: SAFETYscan KINOMEscan binding assay; conditions: Inhibitor
T4 construct: host or cells: E. coli BL21-derived host (T7 phage) or HEK-293

[7] = molecular target: T5, Insulin Receptor (tyrosine kinase) (INSR) (Homo sapiens, UniProt P06213); assay: SAFETYscan KINOMEscan binding assay; conditions: Inhibitor
T5 construct: host or cells: E. coli BL21-derived host (T7 phage) or HEK-293
T5 sequence (P06213 28-1382): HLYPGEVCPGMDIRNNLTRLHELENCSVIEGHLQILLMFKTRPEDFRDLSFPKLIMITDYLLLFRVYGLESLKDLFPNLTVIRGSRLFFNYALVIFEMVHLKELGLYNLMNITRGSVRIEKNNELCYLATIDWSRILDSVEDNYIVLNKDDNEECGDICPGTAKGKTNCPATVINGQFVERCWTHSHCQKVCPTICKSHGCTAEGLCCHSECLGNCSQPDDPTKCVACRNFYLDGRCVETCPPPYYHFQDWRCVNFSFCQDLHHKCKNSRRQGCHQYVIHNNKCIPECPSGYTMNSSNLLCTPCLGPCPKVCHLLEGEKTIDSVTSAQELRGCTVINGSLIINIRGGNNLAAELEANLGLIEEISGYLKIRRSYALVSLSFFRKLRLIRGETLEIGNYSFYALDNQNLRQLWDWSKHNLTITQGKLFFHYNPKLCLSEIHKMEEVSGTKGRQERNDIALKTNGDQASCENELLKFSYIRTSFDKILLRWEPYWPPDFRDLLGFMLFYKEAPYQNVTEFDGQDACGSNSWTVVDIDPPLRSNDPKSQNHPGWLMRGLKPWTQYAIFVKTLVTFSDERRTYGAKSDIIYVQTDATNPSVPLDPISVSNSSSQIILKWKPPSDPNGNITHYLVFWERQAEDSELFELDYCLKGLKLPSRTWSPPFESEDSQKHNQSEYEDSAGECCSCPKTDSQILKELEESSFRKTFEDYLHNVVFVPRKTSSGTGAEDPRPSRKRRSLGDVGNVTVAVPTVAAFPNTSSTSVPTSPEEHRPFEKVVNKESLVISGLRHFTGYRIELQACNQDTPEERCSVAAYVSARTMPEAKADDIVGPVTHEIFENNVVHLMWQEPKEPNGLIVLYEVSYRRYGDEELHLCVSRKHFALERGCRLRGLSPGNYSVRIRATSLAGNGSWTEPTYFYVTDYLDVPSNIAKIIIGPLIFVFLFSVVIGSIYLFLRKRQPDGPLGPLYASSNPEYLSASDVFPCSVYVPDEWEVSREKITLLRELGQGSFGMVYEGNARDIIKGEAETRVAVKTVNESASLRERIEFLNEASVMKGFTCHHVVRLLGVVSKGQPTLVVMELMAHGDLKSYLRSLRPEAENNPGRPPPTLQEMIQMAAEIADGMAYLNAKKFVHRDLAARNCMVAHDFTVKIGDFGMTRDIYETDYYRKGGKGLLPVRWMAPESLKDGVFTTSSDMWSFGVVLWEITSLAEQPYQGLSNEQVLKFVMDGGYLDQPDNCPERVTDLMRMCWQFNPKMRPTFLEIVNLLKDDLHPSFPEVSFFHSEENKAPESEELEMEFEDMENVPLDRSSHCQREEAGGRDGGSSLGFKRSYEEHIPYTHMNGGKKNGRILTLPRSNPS

[8] = molecular target: T6, 5-Hydroxy tryptamine (Serotonin) Receptor 1B (HTR1B) (Homo sapiens, UniProt P28222); assay: SAFETYscan GPCR cAMP; format: cell-based
T6 construct: host or cells: cAMP Hunter cell lines
T6 sequence (P28222 whole entry): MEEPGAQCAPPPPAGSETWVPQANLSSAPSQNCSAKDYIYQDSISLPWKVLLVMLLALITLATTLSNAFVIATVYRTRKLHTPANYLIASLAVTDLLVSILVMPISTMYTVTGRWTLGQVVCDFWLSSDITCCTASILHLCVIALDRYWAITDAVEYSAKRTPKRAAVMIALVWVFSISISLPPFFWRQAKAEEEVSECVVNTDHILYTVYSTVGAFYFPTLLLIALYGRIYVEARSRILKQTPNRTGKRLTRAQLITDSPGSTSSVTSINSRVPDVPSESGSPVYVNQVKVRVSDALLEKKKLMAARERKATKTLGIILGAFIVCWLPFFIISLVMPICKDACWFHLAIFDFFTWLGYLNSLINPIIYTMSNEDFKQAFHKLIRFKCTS

[9] = molecular target: T7, Dopamine transporter (DAT) (Homo sapiens, UniProt Q01959); assay: SAFETYscan Transporter assay; format: cell-based
T7 construct: host or cells: unnamed DiscoverX cell line

[10] = molecular target: Kv7.1/KCNE Potassium voltage-gated channel (KvLQT1/minK) (Homo sapiens, UniProt P51787); assay: SAFETYscan Ion channel assay; format: cell-based; conditions: read-out: RC50 (the source's name)
[11] = molecular target: Endothelin Receptor Type A (EDNRA) (Homo sapiens, UniProt P25101); assay: SAFETYscan GPCR Calcium Flux; format: cell-based; conditions: read-out: RC50 (the source's name)
[12] = molecular target: T8, Serotonin transporter (SERT) (Homo sapiens, UniProt P31645); assay: cell-based; conditions: Blocker
T8 construct: host or cells: unnamed DiscoverX cell line
T8 sequence (P31645 whole entry): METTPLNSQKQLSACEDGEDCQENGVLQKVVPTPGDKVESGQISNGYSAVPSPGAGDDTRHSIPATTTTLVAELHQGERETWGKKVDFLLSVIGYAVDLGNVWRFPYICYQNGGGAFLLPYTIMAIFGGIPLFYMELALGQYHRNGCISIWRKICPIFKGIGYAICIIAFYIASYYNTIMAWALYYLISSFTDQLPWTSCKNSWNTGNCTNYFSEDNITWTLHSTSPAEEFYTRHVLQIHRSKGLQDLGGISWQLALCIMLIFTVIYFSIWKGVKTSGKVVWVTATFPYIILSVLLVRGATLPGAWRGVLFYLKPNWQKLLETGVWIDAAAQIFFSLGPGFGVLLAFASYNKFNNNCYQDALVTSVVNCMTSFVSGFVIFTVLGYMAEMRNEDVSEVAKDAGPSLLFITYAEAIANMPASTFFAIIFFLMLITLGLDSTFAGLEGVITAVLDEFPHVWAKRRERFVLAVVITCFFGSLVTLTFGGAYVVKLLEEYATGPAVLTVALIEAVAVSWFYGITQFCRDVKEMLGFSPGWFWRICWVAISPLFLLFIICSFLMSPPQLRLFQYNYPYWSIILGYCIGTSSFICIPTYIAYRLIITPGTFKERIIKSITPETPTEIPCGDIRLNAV

[13] = molecular target: T9, Opioid Receptor Kappa 1 (OPRK1) (Homo sapiens, UniProt P41145); assay: SAFETYscan GPCR cAMP; format: cell-based
T9 construct: host or cells: cAMP Hunter cell lines
T9 sequence (P41145 whole entry): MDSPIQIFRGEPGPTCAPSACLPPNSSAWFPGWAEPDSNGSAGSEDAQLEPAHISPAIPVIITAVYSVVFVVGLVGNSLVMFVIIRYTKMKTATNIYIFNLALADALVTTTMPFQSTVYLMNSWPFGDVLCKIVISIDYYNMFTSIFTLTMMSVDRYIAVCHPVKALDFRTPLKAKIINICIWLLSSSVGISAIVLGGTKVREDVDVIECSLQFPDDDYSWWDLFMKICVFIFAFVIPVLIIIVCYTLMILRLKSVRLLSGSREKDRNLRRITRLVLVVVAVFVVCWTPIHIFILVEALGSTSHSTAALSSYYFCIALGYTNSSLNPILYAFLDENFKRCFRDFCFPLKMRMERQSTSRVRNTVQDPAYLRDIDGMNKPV

[14] = molecular target: Adenosine Receptor A2A (ADORA2A) (Homo sapiens, UniProt P29274); assay: SAFETYscan GPCR Calcium Flux; format: cell-based; conditions: for MCA-13 Max. Responce: 10 μM
Chain of Adenosine Receptor A2A (ADORA2A) (P29274 whole entry): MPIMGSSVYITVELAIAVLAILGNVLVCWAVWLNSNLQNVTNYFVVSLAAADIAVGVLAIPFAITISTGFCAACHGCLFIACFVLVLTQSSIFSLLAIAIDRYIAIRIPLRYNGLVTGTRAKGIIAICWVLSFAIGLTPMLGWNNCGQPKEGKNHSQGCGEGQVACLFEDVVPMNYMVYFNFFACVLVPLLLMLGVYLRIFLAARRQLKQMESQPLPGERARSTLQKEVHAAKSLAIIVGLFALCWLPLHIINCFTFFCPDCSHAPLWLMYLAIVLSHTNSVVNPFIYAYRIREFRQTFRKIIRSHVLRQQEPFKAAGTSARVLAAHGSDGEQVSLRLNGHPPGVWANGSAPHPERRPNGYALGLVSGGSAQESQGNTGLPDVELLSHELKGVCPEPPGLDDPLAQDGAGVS

[15] = molecular target: Nuclear Hormone Glucocorticoid Receptor (GR) (Homo sapiens, UniProt P04150); assay: SAFETYscan Nuclear Hormone Receptor assay; format: cell-based; conditions: read-out: RC50 (the source's name)
[16] = 10 μM, read-out: MCA-13 Max. Responce
[17] = read-out: RC50 (the source's name)

T1 sequence (Q13464 whole entry): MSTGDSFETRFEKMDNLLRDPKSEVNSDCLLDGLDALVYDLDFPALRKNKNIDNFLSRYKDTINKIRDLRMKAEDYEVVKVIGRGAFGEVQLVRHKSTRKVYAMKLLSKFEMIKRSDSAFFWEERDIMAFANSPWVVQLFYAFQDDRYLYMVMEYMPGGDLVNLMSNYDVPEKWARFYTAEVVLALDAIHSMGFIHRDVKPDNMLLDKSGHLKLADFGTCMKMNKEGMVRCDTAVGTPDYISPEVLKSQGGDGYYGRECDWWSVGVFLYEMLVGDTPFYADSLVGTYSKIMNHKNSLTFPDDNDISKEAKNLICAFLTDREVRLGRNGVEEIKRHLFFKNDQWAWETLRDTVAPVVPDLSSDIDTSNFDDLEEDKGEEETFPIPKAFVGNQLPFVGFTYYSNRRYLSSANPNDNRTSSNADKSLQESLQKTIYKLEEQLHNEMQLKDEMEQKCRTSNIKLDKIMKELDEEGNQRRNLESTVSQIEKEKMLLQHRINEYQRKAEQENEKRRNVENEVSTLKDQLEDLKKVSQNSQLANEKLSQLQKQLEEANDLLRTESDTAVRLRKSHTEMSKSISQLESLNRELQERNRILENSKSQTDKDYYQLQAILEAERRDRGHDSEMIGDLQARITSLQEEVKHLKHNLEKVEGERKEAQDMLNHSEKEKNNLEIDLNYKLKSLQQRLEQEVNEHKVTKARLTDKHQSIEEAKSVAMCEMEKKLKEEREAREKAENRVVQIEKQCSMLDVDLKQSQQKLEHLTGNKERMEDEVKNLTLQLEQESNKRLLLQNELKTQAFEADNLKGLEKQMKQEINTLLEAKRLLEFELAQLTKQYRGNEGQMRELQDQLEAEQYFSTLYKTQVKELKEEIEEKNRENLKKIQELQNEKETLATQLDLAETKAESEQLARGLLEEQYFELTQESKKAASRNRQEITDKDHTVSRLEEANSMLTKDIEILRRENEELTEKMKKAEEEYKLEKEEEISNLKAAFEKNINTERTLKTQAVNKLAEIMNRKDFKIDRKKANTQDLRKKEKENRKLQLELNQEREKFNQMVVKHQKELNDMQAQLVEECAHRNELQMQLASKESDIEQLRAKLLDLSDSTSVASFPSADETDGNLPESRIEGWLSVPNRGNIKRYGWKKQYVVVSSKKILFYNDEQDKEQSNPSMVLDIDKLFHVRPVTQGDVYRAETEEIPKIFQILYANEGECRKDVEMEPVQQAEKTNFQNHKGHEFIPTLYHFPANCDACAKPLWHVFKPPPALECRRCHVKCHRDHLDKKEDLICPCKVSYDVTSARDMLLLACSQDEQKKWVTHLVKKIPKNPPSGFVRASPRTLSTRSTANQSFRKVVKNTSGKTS

SMILES: C=CCC1CCCC(CCC(=O)O)C1=C (stereo not drawn) [HU-MCA-13, 3-(3-allyl-2-methylenecyclohexyl)propanoic acid]
- inhibition at 10 µM [1, 16]: 21.6%
- IC50 [1, 17]: > 10 µM
- inhibition at 10 µM [2, 16]: 1.86%
- IC50 [2, 17]: > 10 µM
- EC50 ([3]; Agonist): > 10 µM
- IC50 ([3]; Antagonist): > 10 µM
- toxicity to neurons (neurons): not toxic
- EC50 [4]: > 10 µM
- IC50 [4]: > 10 µM
- EC50 ([5]; Agonist): > 10 µM
- IC50 ([5]; Antagonist): > 10 µM
- inhibition at 10 µM [6, 16]: 21.7%
- IC50 [6, 17]: > 10 µM
- inhibition at 10 µM [7, 16]: 3.22%
- IC50 [7, 17]: > 10 µM
- EC50 [8]: > 10 µM
- IC50 [8]: > 10 µM
- IC50 [9]: > 10 µM
- inhibition at 10 µM ([9]; 10 μM, Blocker, Transporter, read-out: MCA-13 Max. Responce): 0%
- IC50 ([10]; Blocker): > 10 µM
- EC50 ([10]; Opener): > 10 µM
- EC50 ([11]; Agonist): > 10 µM
- IC50 ([11]; Antagonist): > 10 µM
- inhibition at 10 µM [12, 16]: 15.4%
- IC50 [12, 17]: > 10 µM
- EC50 [13]: > 10 µM
- IC50 [13]: > 10 µM
- MCA-13 Max. Responce ([14]; Agonist): 0%
- MCA-13 Max. Responce ([14]; Antagonist): 4.09%
- EC50 ([14]; Agonist, read-out: RC50 (the source's name)): > 10 µM
- IC50 ([14]; Antagonist, read-out: RC50 (the source's name)): > 10 µM
- EC50 ([15]; Agonist): > 10 µM
- IC50 ([15]; Antagonist): > 10 µM
